Assay results from US9453006B2, “Crystalline form having specific crystal habit and pharmaceutical composition containing this crystalline form as active ingredient” (POLA PHARMA INC., priority 2013, dated 2016).

Experiments:
Trichomonas = experiment: Anti-Trichomonas effect, number of survived protozoa after 72 hours culture at 37° C. (Example 4); format: cell-based; settings: for Number of survived protozoa: cultured 72 hours at 37° C.
Experimental: Each of Crystal 1 and Crystal 2 was correctly weighed in an amount of 3.45 mg, which was dissolved in 10 mL of ethanol, in the same manner as in Example 3. After confirming the absence of the crystal by visual observation, 100 μL of the solution was used as an aliquot, and 900 μL of physiological saline was added thereto. The resultant solution was subjected to the sterilizing filtration by using a filter having a pore size of […] a sample or specimen. 0.5 mL of each of the specimens was added to “Trichomonas medium F” (produced by Fuji Pharma Co., Ltd.). Further, 100 μL of Trichomonas culture, which had been precultured and prepared to give 2.7×10^5 individuals/mL by adding the medium, was added, followed by being cultured for 72 hours at 37° C. (final concentration: 2.4 μg/mL). After completing the cultivation, the number of survived individuals of Trichomonas was counted by using a hemocytometer.

[1] = system: Trichomonas vaginalis (clinically isolated strain); experiment: Effect on Trichomonas vaginalis, number of survived individuals after 96 hours culture (Example 3); format: cell-based; settings: for Number of survived individuals of Trichomonas: after 0.22 μm sterilizing filtration, cultured 96 hours
Source text: The effect on Trichomonas vaginalis (clinically isolated strain) of the crystal was investigated while being compared with a crystal having such a crystal habit that the (11-1) plane was the specific crystal growth plane. A solution of 10% ethanol/physiological saline was used as a control.
Crystal of Comparative Example described above was used as the crystal which had such a crystal habit that the (11-1) plane was the specific crystal growth plane. Crystal 2 was used as the crystal which had such a crystal habit that the (011) plane was the specific crystal growth plane.
Each of the crystals of luliconazole was weighed in an amount of 7.02 mg to which 10 mL of ethanol was added to dissolve the crystal. After confirming the absence of the crystal by visual observation, 100 μL of the solution was used as an aliquot, and 900 μL of physiological saline was added thereto. The resultant solution was subjected to the sterilizing filtration by using a filter having a pore size of 0.22 μm to provide a sample of 5.02 μg/mL (final concentration). 250 μL of an aliquot was taken therefrom, to which 250 μL of 10% ethanol/physiological saline was added to provide a sample of 2.51 μg/mL (final concentration).
0.5 mL of each of the samples was added to “Trichomonas medium F” (produced by Fuji Pharma Co., Ltd.), and 100 μL of Trichomonas culture (5×10^3 individuals of Trichomonas) was added thereto, followed by being cultured for 96 hours. After performing cooling for 10 minutes in ice water, the medium was stirred, which was spread on a hemocytometer to count a number of survived individuals of Trichomonas. As for a control, 0.5 mL of 10% ethanol/physiological saline was added in place of the sample. […] Further, according to the fact that the peak area ratio of the (011) plane was 26%, it is possible to estimate and acknowledge that the effect as described above is provided if I(011) with respect to the sum total of I(001), I(100), I(10-1), I(011), I(110), I(11-1), I(10-2), I(11-2), I(020), I(021), I(20-2), I(121), I(013), I(11-3), and I(221) is not less than 25%, provided that integrated intensities of diffraction peaks, which correspond to the (001), (100), (10-1), (011), (110), (11-1), (10-2), (11-2), (020), (021), (20-2), (121), (013), (11-3), and (221) planes, are designated as I(001), I(100), I(10-1), I(011), I(110), I(11-1), I(10-2), I(11-2), I(020), I(021), I(20-2), I(121), I(013), I(11-3), and I(221) respectively in relation to the diffraction peaks detected in a range of 2θ=5 to 35° in a powder X-ray diffraction pattern in which CuKα is used as an X-ray source.

[2] = sample 2.51 μg/mL (final concentration)
[3] = sample 5.02 μg/mL (final concentration)

Row | SMILES | anti-Trichomonas effect (Trichomonas; Crystal 1 compared with Crystal 2) | Number of survived protozoa (Trichomonas; final concentration 2.4 μg/mL) | Number of survived protozoa (Trichomonas; final concentration 4.8 μg/mL) | Number of survived protozoa (Trichomonas; final concentration 9.6 μg/mL) | Number of survived individuals of Trichomonas [1, 2] | Number of survived individuals of Trichomonas [1, 3] | suppression of the growth of Trichomonas in the vicinity of MIC ([1]; compared with the crystal having the (11-1) plane as specific crystal growth plane)
1 | N#C/C(=C1/SC[C@@H](c2ccc(Cl)cc2Cl)S1)n1ccnc1 [Crystal 1, luliconazole] | more excellent than that of Crystal 2 | 5.57 ± 0.42 100000 individuals/mL | 0 100000 individuals/mL | 0 100000 individuals/mL |  |  | 
2 | N#C/C(=C1/SC[C@@H](c2ccc(Cl)cc2Cl)S1)n1ccnc1 [Crystal of Comp. Ex., luliconazole, reference compound] |  |  |  |  | 116667 ± 15275 individuals/mL | 23333 ± 5773 individuals/mL | 
3 | N#C/C(=C1/SC[C@@H](c2ccc(Cl)cc2Cl)S1)n1ccnc1 [Crystal 2, luliconazole] |  | 6.57 ± 0.60 100000 individuals/mL | 0 100000 individuals/mL | 0 100000 individuals/mL | 23333 ± 5773 individuals/mL | 23333 ± 5773 individuals/mL | significantly excellent
